What was measured:
[1] = test system: pERK in MDA-MB-231 cells; experiment: Inhibitory activity at pERK (In Cell Western, MDA-MB-231 cells); type: cell-based; conditions: Homo sapiens, MDA-MB-231, MDA-MB-231 cells; read-out: MDA-MB-231 pERK IC50
Summary of the method: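 MDA-MB-231 cells were treated 2 h at 37 °C with 8 compound concentrations in 3-fold dilutions from 30 μM top (0.3% DMSO, DMEM with 0.1% BSA). Cells were then fixed, methanol-permeabilized and immunostained for pERK with PI counterstain. Fluorescence was read on Acumen and IC50 calculated.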

[2] = molecular target: B-Raf kinase (Homo sapiens (Human), UniProt P15056); experiment: Inhibitory activity at B-Raf kinase (ADP-GLO assay); type: biochemical
B-Raf kinase, sequence (P15056 416-766): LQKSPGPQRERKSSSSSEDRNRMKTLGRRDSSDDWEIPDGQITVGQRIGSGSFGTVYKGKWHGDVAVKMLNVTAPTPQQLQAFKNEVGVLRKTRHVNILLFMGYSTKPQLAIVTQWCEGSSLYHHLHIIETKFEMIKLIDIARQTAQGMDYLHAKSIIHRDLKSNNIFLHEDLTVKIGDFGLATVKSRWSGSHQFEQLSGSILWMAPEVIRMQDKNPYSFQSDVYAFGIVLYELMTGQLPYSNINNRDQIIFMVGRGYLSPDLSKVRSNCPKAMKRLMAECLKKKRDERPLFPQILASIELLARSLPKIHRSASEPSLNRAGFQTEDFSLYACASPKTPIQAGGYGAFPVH
Procedure: Inhibitory Activity of Compounds at B-Raf Kinase
• [Experimental method]: Use ADP-GLO™ assay kit from Promega to evaluate the inhibitory activity of compounds at B-Raf • [Instrument]: PerKinElmer's ENVISION plate reader • [Material]: Optiplate-384 well plate (PerKinElmer), kinase buffer (50 mM Hepes pH7.5, 1 mM EGTA, 2 mM DTT, 10 mM Mg^2+, 0.05% BSA), B-Raf kinase (Millipore, catalogue #14-530-K), GST-MEK1 substrate (Carna, catalogue #07-141-10), Super pure ATP (Promega), ADP-GLO™ assay kit (Promega, catalogue # V9102), DMSO (Sigma, catalogue #34869), purified water (Millipore, type: Milli-Q). • [Study conditions]: Mix B-Raf kinase (final concentration: 5 nM) and compound (DMSO final concentration: 0.25%) and preincubate at 30° C. for 20 min, then add ATP (final concentration: 6 μM) and reaction substrate (final concentration: 30 nM), React for 2 hrs at 30° C. After reaction, add ADP-GLO™ reagent, react for 40 min at room temperature, then add ADP-GLO™ detecting agent, react for 30 min at room temperature. After that, use ENVSION to measure the […]. • [Samples]: Compounds in the examples and Sorafenib (positive control) • [Data analysis]: Use CBIS data analysis software to calculate IC50 values

[3] = molecular target: KDR kinase (790-1356 AA) (Homo sapiens (Human), UniProt P35968); experiment: Inhibitory activity at KDR kinase (Lance Ultra Ulight-TK assay); type: biochemical
KDR kinase (790-1356 AA), sequence (P35968 790-1356): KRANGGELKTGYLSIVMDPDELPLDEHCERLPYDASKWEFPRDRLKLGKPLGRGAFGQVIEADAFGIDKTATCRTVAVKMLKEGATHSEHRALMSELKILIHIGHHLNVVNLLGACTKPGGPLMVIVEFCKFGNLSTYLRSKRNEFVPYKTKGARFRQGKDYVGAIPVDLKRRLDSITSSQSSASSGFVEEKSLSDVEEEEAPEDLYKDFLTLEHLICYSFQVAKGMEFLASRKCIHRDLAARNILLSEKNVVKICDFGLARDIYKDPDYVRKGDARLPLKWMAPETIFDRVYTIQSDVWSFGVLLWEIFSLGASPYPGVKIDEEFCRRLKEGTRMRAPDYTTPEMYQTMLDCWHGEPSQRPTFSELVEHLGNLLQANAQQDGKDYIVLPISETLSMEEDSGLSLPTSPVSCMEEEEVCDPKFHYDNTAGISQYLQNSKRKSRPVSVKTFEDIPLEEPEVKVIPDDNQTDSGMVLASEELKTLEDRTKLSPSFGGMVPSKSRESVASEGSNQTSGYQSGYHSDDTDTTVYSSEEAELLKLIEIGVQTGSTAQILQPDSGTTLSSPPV
Summary of the method: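 TR-FRET (Eu-anti-phosphotyrosine PT66) with 20 nM KDR preincubated with compound 20 min at 30 °C in HEPES pH 7.5 buffer with Mg2+/Mn2+, 0.5% DMSO.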

[4] = test system: PLC-PRF-5 cells; experiment: Inhibition of proliferation of PLC-PRF-5 cells (ATPlite); type: cell-based; conditions: Homo sapiens, PLC-PRF-5, PLC-PRF-5 cells; read-out: PLC-PRF-5 cell proliferation IC50
Summary of the method: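 PLC-PRF-5 cells in DMEM/10% FBS, seeded 2 h before compound; 8-point 3-fold dilutions from 30 μM final top, 0.3% DMSO. After 96 h at 37 °C, 5% CO2, ATP content read by ATPlite luminescence; IC50 calculated.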

IC50 [1] [nM]	IC50 [2] [nM]	IC50 [3] [nM]	Structure (SMILES)	IC50 [4] [nM]
13.4	5.5	9.5	CN1CCC(c2cc(NC(=O)Nc3ccc(Oc4ccnc(NC(=O)C5CC5)c4)cc3)cc(C(F)(F)F)c2)CC1 [Exe. 143]	892
23	32	15.2	O=C(Nc1ccc(Oc2ccnc(NC(=O)C3CC3)c2)c(F)c1)Nc1ccc(F)c(C(F)(F)F)c1 [Exe. 153]	735
37.7	37	8.3	O=C(Nc1ccc(Oc2ccnc(NC(=O)C3CC3)c2)c(F)c1)Nc1cc(C(F)(F)F)ccc1F [Exe. 156]	52
34.7	43	5.9	O=C(Nc1ccc(Oc2ccnc(NC(=O)C3CC3)c2)c(F)c1)Nc1cc(C(F)(F)F)ccc1Cl [Exe. 157]	156
86.9	7.9	12.2	CN1CCC(Nc2cc(NC(=O)Nc3ccc(Oc4ccnc(NC(=O)C5CC5)c4)c(F)c3)cc(C(F)(F)F)c2)CC1 [Exe. 161]	1340
198	71.5	30.7	CN1CCC(Oc2cc(NC(=O)Nc3ccc(Oc4ccnc(NC(=O)C5CC5)c4)c(F)c3)cc(C(F)(F)F)c2)CC1 [Exe. 164]	2950
262	23.8	16.1	CN1CCN(Cc2cc(NC(=O)Nc3ccc(Oc4ccnc(NC(=O)C5CC5)c4)c(F)c3)cc(C(F)(F)F)c2)CC1 [Exe. 167]	1230
11.6	7.9	12	CN1CCC(Nc2ccc(NC(=O)Nc3ccc(Oc4ccnc(NC(=O)C5CC5)c4)c(F)c3)cc2C(F)(F)F)CC1 [Exe. 168]	31
30.5	9.8	4.9	O=C(Nc1cccc(OC(F)(F)F)c1)Nc1ccc(Oc2ccnc(NC(=O)C3CC3)c2)c(F)c1 [Exe. 175]	270
17	32	14.7	CC(F)(F)c1cc(NC(=O)Nc2ccc(Oc3ccnc(NC(=O)C4CC4)c3)c(F)c2)ccc1Cl [Exe. 182]	752
15.7	56	13.6	CC(F)(F)c1cc(NC(=O)Nc2ccc(Oc3ccnc(NC(=O)C4CC4)c3)c(F)c2)ccc1F [Exe. 183]	230
23.5	19	17.2	CN1CCC(Oc2ccc(NC(=O)Nc3ccc(Oc4ccnc(NC(=O)C5CC5)c4)c(F)c3)cc2C(F)(F)F)CC1 [Exe. 188]	34
19.3	29.8	10.7	O=C(Nc1cc(N2CCOCC2)cc(C(F)(F)F)c1)Nc1ccc(Oc2ccnc(NC(=O)C3CC3)c2)c(F)c1 [Exe. 189]	260

The next lines start with the compound.

Structure (SMILES)	IC50 [1] [nM]	IC50 [2] [nM]	IC50 [3] [nM]	IC50 [4] [nM]
O=C(Nc1ccc(Oc2ccnc(NC(=O)C3CC3)c2)cc1)Nc1cc(F)cc(C(F)(F)F)c1 [Exe. 141]	40.4	125	7.1	642
O=C(Nc1ccc(Oc2ccnc(NC(=O)C3CC3)c2)cc1)Nc1cc(C(F)(F)F)ccc1Cl [Exe. 142]	13.9	39	10.4	642
O=C(Nc1ccc(Oc2ccnc(NC(=O)C3CC3)c2)cc1)Nc1cccc(C(F)(F)F)c1 [Exe. 144]	6	30	11.4	403
CS(=O)(=O)c1cc(NC(=O)Nc2ccc(Oc3ccnc(NC(=O)C4CC4)c3)cc2)cc(C(F)(F)F)c1 [Exe. 145]	20.7	5.1	7.6	1670
O=C(Nc1ccc(Oc2ccnc(NC(=O)C3CC3)c2)cc1)Nc1cccc(OC(F)(F)F)c1 [Exe. 146]	11.4	14	7.8	689
CC(F)(F)c1ccnc(NC(=O)Nc2ccc(Oc3ccnc(NC(=O)C4CC4)c3)cc2)c1 [Exe. 147]	23.8	15	11.1	1160
CC(F)(F)c1ccc(F)c(NC(=O)Nc2ccc(Oc3ccnc(NC(=O)C4CC4)c3)cc2)c1 [Exe. 148]	7.7	16	6.2	240
CC(F)(F)c1cc(NC(=O)Nc2ccc(Oc3ccnc(NC(=O)C4CC4)c3)cc2)ccc1Cl [Exe. 149]	25.4	38	25.4	800
O=C(Nc1ccc(Oc2ccnc(NC(=O)C3CC3)c2)cc1)Nc1ccc2c(c1)C(F)(F)CCO2 [Exe. 151]	3.6	3.3	4.5	608
N#Cc1cc(NC(=O)Nc2ccc(Oc3ccnc(NC(=O)C4CC4)c3)cc2)cc(C(F)(F)F)c1 [Exe. 152]	33	72	7.1	390
O=C(Nc1cc(-c2ccncc2)cc(C(F)(F)F)c1)Nc1ccc(Oc2ccnc(NC(=O)C3CC3)c2)c(F)c1 [Exe. 159]	44.3	35.4	8	642
CC1CN(c2cc(NC(=O)Nc3ccc(Oc4ccnc(NC(=O)C5CC5)c4)c(F)c3)cc(C(F)(F)F)c2)CCO1 (stereo not drawn) [Exe. 162]	30.6	22.5	6.8	330
C=CC(=O)Nc1cc(NC(=O)Nc2ccc(Oc3ccnc(NC(=O)C4CC4)c3)c(F)c2)cc(C(F)(F)F)c1 [Exe. 163]	32.9	24	11.6	998
CS(=O)(=O)Nc1cc(NC(=O)Nc2ccc(Oc3ccnc(NC(=O)C4CC4)c3)c(F)c2)cc(C(F)(F)F)c1 [Exe. 165]	41	6.6	5.5	1070
O=C(Nc1cc(N2CCS(=O)(=O)CC2)cc(C(F)(F)F)c1)Nc1ccc(Oc2ccnc(NC(=O)C3CC3)c2)c(F)c1 [Exe. 166]	45.5	27	11.5	1640
O=C(Nc1ccc(Oc2ccnc(NC(=O)C3CC3)c2)c(F)c1)Nc1cc(C(F)(F)F)ncn1 [Exe. 170]	31.6	96	5.6	230
O=C(Nc1ccc(OC(F)(F)F)cc1)Nc1ccc(Oc2ccnc(NC(=O)C3CC3)c2)c(F)c1 [Exe. 178]	159	34.7	5.3	4880
CC(F)(F)c1ccc(F)c(NC(=O)Nc2ccc(Oc3ccnc(NC(=O)C4CC4)c3)c(F)c2)c1 [Exe. 181]	25.7	4.8	7.1	23
O=C(Nc1ccc(Oc2ccnc(NC(=O)C3CC3)c2)c(F)c1)Nc1cc(Cl)ccc1F [Exe. 184]	310	73.4	7.6	610
O=C(Nc1cc(-c2cccnc2)cc(C(F)(F)F)c1)Nc1ccc(Oc2ccnc(NC(=O)C3CC3)c2)c(F)c1 [Exe. 186]	53.3	27.5	5	640
CC(C)Nc1cc(NC(=O)Nc2ccc(Oc3ccnc(NC(=O)C4CC4)c3)c(F)c2)cc(C(F)(F)F)c1 [Exe. 187]	63.8	34.3	6.8	638
N#Cc1cc(NC(=O)Nc2ccc(Oc3ccnc(NC(=O)C4CC4)c3)c(F)c2)cc(C(F)(F)F)c1 [Exe. 190]	74.3	87	11.9	875
Cc1cc(Oc2ccnc(NC(=O)C3CC3)c2)ccc1NC(=O)Nc1ccc(F)c(C(F)(F)F)c1 [Exe. 191]	9.4	10	11.8	2530
Cc1cc(Oc2ccnc(NC(=O)C3CC3)c2)ccc1NC(=O)Nc1cccc(C(F)(F)F)c1 [Exe. 193]	7.4	6.8	10.9	2300
Cc1cc(Oc2ccnc(NC(=O)C3CC3)c2)ccc1NC(=O)Nc1cccc(OC(F)(F)F)c1 [Exe. 194]	9.5	8.8	10.5	2320
Cc1cc(Oc2ccnc(NC(=O)C3CC3)c2)ccc1NC(=O)Nc1cc(OC(F)(F)F)ccc1F [Exe. 195]	10.1	13	6.1	790

— patent publication US9359338B2, “Cyclopropanecarboxamido-substitute aromatic compounds as anti-tumor agents” (Crown Bioscience Inc. (Taiwan), priority 2012, dated 2016)
